Laboratory results published in PubChem BioAssay AID248 (DTP/NCI, 2004).
Several values for one entry are separate records, joined by “and”; a condition that tells them apart may be missing. Equal values may be shown once. Toxic doses and inconclusive results are not listed. Rule as the data show it: active = T/C of 150% or more; inactive = T/C below 125%.

Tested on: L1210 leukemia ip in BDF1 mice, survival T/C
Test: NCI In Vivo Anticancer Drug Screen. Data for tumor model L1210 Leukemia (intraperitoneal) in B6D2F1 (BDF1) mice
Details: endpoint: mean survival time, higher = longer survival
Summary of the method: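 In this screen, tumor-bearing mice given compound are compared to those given vehicle, and their survival values are reported as a treated-to-control quotient.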

[1] = dose: 100.0 mg/kg/injection, schedule: Q01DX001 (ip), vehicle: saline with Tween-80
[2] = dose: 200.0 mg/kg/injection, schedule: Q01DX001 (ip), vehicle: saline with Tween-80
[3] = dose: 100.0 mg/kg/injection, schedule: Q01DX009 (ip), vehicle: Klucel (hydroxypropylcellulose) (HPC)
[4] = dose: 200.0 mg/kg/injection, schedule: Q01DX009 (ip), vehicle: Klucel (hydroxypropylcellulose) (HPC)
[5] = dose: 400.0 mg/kg/injection, schedule: Q01DX009 (ip), vehicle: Klucel (hydroxypropylcellulose) (HPC)
[6] = dose: 100.0 mg/kg/injection, schedule: Q04DX003 (ip), vehicle: saline with Tween-80
[7] = dose: 200.0 mg/kg/injection, schedule: Q04DX003 (ip), vehicle: saline with Tween-80
[8] = dose: 400.0 mg/kg/injection, schedule: Q04DX003 (ip), vehicle: saline with Tween-80
[9] = dose: 100.0 mg/kg/injection, schedule: Q04DX003 (ip), vehicle: Klucel (hydroxypropylcellulose) (HPC)
[10] = dose: 200.0 mg/kg/injection, schedule: Q04DX003 (ip), vehicle: Klucel (hydroxypropylcellulose) (HPC)
[11] = dose: 100.0 mg/kg/injection, schedule: Q01DX009 (ip), vehicle: saline with Tween-80
[12] = dose: 200.0 mg/kg/injection, schedule: Q01DX001 (ip), vehicle: saline
[13] = dose: 400.0 mg/kg/injection, schedule: Q01DX001 (ip), vehicle: saline
[14] = dose: 400.0 mg/kg/injection, schedule: Q04DX003 (ip), vehicle: Klucel (hydroxypropylcellulose) (HPC)
[15] = dose: 100.0 mg/kg/injection, schedule: Q01DX001 (ip), vehicle: carboxymethylcellulose (CMC)
[16] = dose: 200.0 mg/kg/injection, schedule: Q01DX001 (ip), vehicle: carboxymethylcellulose (CMC)
[17] = dose: 400.0 mg/kg/injection, schedule: Q01DX001 (ip), vehicle: carboxymethylcellulose (CMC)
[18] = dose: 100.0 mg/kg/injection, schedule: Q01DX001 (ip), vehicle: saline
[19] = dose: 100.0 mg/kg/injection, schedule: Q01DX001 (ip), vehicle: other
[20] = dose: 200.0 mg/kg/injection, schedule: Q01DX001 (ip), vehicle: other

Measured: T/C

Cn1c(=O)n(O)c(=O)c2ccccc21
inactive: dose: 50.0 mg/kg/injection, schedule: Q01DX001 (ip), vehicle: saline with Tween-80 96 % of control | [1] 109 % of control | [2] 91 % of control

Cc1ccc(NC(=S)N2CCCCC2)cc1C
inactive: [3] 92 % of control | [4] 93 % of control | [5] 101 % of control

C=CC(=O)N1CCOCC1
inactive: [6] 113 % of control | [7] 100 % of control | [8] 108 % of control

Cc1ccc(-c2cc3ccccc3[nH]2)cc1
inactive: dose: 50.0 mg/kg/injection, schedule: Q01DX009 (ip), vehicle: Klucel (hydroxypropylcellulose) (HPC) 94 % of control | [3] 89 % of control | [9] 91 % of control | [4] 86 % of control | [10] 90 % of control

CC(=O)NC/C(C)=N/Nc1ccc([N+](=O)[O-])cc1[N+](=O)[O-]
inactive: dose: 25.0 mg/kg/injection, schedule: Q01DX009 (ip), vehicle: saline with Tween-80 91 % of control | dose: 50.0 mg/kg/injection, schedule: Q01DX009 (ip), vehicle: saline with Tween-80 93 % of control | [11] 102 % of control | [6] 88 % of control

COc1cc(C=O)ccc1OC(=O)Nc1cccc(Cl)c1Cl
inactive: [11] 90 % of control | dose: 200.0 mg/kg/injection, schedule: Q01DX009 (ip), vehicle: saline with Tween-80 90 % of control | dose: 400.0 mg/kg/injection, schedule: Q01DX009 (ip), vehicle: saline with Tween-80 92 % of control

Nc1c2ccccc2cc2cccc[n+]12
inactive: dose: 9.38 mg/kg/injection, schedule: Q01DX001 (ip), vehicle: other 101 % of control and 100 % of control | dose: 18.75 mg/kg/injection, schedule: Q01DX001 (ip), vehicle: other 97 % of control and 99 % of control

CCN(CC)C(C)=O
inactive: dose: 50.0 mg/kg/injection, schedule: Q01DX001 (ip), vehicle: saline 87 % of control | [12] 86 % of control | [13] 86 % of control

O=[N+]([O-])c1cc2c3ccccc3c(F)cc2c2ccccc12
inactive: [3] 98 % of control | [9] 96 % of control | [4] 98 % of control | [10] 91 % of control | [5] 98 % of control | [14] 101 % of control

CN(C)NC(=O)/C=C/c1ccccc1
inactive: [3] 112 % of control | [9] 94 % of control | [4] 102 % of control | [10] 100 % of control | [14] 87 % of control

CCO/C=C1/C(=O)N(C)c2c1c(=O)n(C)c(=O)n2C
inactive: dose: 100.0 mg/kg/injection, schedule: Q04DX002 (ip), vehicle: Klucel (hydroxypropylcellulose) (HPC) 106 % of control | dose: 200.0 mg/kg/injection, schedule: Q04DX002 (ip), vehicle: Klucel (hydroxypropylcellulose) (HPC) 109 % of control

Nc1nc(-c2ccccc2)nc2nonc12
inactive: [6] 105 % of control | [7] 99 % of control | [8] 97 % of control

[Co+2].[NH-]C(CC(N)=O)C(=O)O.[NH-]C(CC(N)=O)C(=O)O (configuration not stated)
inactive: dose: 100.0 mg/kg/injection, schedule: Q04DX002 (ip), vehicle: saline 108 % of control | dose: 200.0 mg/kg/injection, schedule: Q04DX002 (ip), vehicle: saline 86 % of control

Cc1[nH]c(N)nc(=S)c1CCCN(C(=O)c1ccccc1)c1ccccc1
inactive: dose: 37.5 mg/kg/injection, schedule: Q01DX001 (ip), vehicle: Klucel (hydroxypropylcellulose) (HPC) 90 % of control | dose: 150.0 mg/kg/injection, schedule: Q01DX001 (ip), vehicle: Klucel (hydroxypropylcellulose) (HPC) 90 % of control

CC(Cl)CN1c2ccccc2Sc2ccc(Cl)cc21 (configuration not stated)
inactive: [15] 97 % of control | [16] 95 % of control | [17] 92 % of control

CCCCCCCCCCCCC(O)C(=O)O (configuration not stated)
inactive: [9] 95 % of control | [10] 95 % of control | [14] 94 % of control

O=[N+]([O-])c1ccc2c(c1)/C(=N\O)c1cc(Cl)c(Cl)cc1-2
inactive: [15] 98 % of control | dose: 100.0 mg/kg/injection, schedule: Q04DX003 (ip), vehicle: acetone 94 % of control | [16] 98 % of control | dose: 200.0 mg/kg/injection, schedule: Q04DX003 (ip), vehicle: acetone 100 % of control | [17] 95 % of control | dose: 400.0 mg/kg/injection, schedule: Q04DX003 (ip), vehicle: acetone 96 % of control

C=CC(=O)NC(C)C(=O)O (configuration not stated)
inactive: [18] 95 % of control | [12] 102 % of control | [13] 98 % of control

Cc1nc(N)nc(N)c1CCCCc1ccc(N)cc1
inactive: dose: 100.0 mg/kg/injection, schedule: Q01DX001 (ip), vehicle: Klucel (hydroxypropylcellulose) (HPC) 92 % of control | dose: 200.0 mg/kg/injection, schedule: Q01DX001 (ip), vehicle: Klucel (hydroxypropylcellulose) (HPC) 101 % of control

O=c1nc(SCc2ccccc2)c(SCc2ccccc2)n[nH]1
inactive: [18] 95 % of control | [12] 98 % of control | [13] 91 % of control

CCCCCCOCC(O)CNCCN (configuration not stated)
inactive: dose: 6.25 mg/kg/injection, schedule: Q04DX003 (ip), vehicle: saline with Tween-80 95 % of control | dose: 12.5 mg/kg/injection, schedule: Q04DX003 (ip), vehicle: saline with Tween-80 90 % of control | dose: 25.0 mg/kg/injection, schedule: Q04DX003 (ip), vehicle: saline with Tween-80 96 % of control

CC(C)c1ccc(C(c2c(O)c3ccccc3oc2=O)c2c(O)c3ccccc3oc2=O)cc1
inactive: [3] 90 % of control | [9] 106 % of control | [4] 103 % of control | [10] 100 % of control | [14] 105 % of control

CN1C(=O)C=C(N)C1=O
inactive: dose: 100.0 mg/kg/injection, schedule: Q04DX003 (ip), vehicle: saline 96 % of control | dose: 200.0 mg/kg/injection, schedule: Q04DX003 (ip), vehicle: saline 94 % of control | dose: 400.0 mg/kg/injection, schedule: Q04DX003 (ip), vehicle: saline 91 % of control

Clc1ccc(N=Cc2ccccc2)cc1
inactive: [3] 104 % of control | [9] 95 % of control | [4] 103 % of control | [10] 96 % of control | [5] 98 % of control | [14] 104 % of control

O=C(CSSCC(=O)Nc1ccccc1O)Nc1ccccc1O
inactive: [19] 88 % of control | [20] 93 % of control | dose: 400.0 mg/kg/injection, schedule: Q01DX001 (ip), vehicle: other 89 % of control

COc1ccc2c(c1OC)-c1c3c(cc4c1C(C2)N(C)CC4)OCO3 (configuration not stated)
inactive: [18] 98 % of control | [12] 101 % of control | [13] 96 % of control

CCCCCCCCCCCCCCCCCC[N+](CCCC)(CCCC)CCCCCCCCCCCCCCCCCC (tested in a mixture with another compound)
inactive: [19] 93 % of control | [20] 90 % of control

CNC(=O)Oc1cccc(NC(=O)OCC#CCCl)c1
inactive: [1] 92 % of control | [2] 90 % of control | dose: 400.0 mg/kg/injection, schedule: Q01DX001 (ip), vehicle: saline with Tween-80 90 % of control

C/C(=N/O)c1ccc2c(c1)/C(=N/O)c1ccccc1-2
inactive: [15] 109 % of control | [16] 94 % of control | [17] 93 % of control
